For this assay, the target named is recombinant human CCR5 receptor (Homo sapiens, UniProt P51681). Description: in vitro radioligand binding assay: inhibition of iodinated MIP-1α binding to CCR5 membranes (scintillation proximity). The note with it: displacement of 0.1 nM iodinated MIP-1α; membranes from Chinese hamster ovary cells expressing recombinant human CCR5; average if tested more than once. The method, then: The ability of compounds to inhibit the binding of MIP-1α was assessed by an in vitro radioligand binding assay. Membranes were prepared from Chinese hamster ovary cells which expressed the recombinant human CCR5 receptor. These membranes were incubated with 0.1 nM iodinated MIP-1α, scintillation proximity beads and various concentrations of the compounds of the invention in 96-well plates. The amount of iodinated MIP-1α bound to the receptor was determined by scintillation counting. Competition curves were obtained for compounds and the concentration of compound which displaced 50% of bound iodinated MIP-1α was calculated (IC50).
Sequence of recombinant human CCR5 receptor (P51681 whole entry): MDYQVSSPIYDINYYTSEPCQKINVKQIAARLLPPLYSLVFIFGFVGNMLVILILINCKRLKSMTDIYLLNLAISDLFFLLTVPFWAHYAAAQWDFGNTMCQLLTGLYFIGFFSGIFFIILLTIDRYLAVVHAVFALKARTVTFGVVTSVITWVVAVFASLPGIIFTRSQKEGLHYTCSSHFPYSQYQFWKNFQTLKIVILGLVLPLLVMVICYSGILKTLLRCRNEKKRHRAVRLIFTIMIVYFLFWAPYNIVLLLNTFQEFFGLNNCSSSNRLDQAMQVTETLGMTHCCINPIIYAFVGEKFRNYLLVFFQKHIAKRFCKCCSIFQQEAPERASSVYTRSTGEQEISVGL
In Table VI the results are presented as Pic50 values. A Pic50 value is the negative log (to base 10) of the IC50 result, so an IC50 of 1 μM (that is 1×10^−6M) gives a Pic50 of 6. If a compound was tested more than once then the data below is an average of the probative tests results.
In general terms: Scintillation proximity formats need no separation of bound from free tracer.

Take `CC(=O)Nc1ccc(S(=O)(=O)NCC2CCN(CC[C@@H](c3cc(F)cc(F)c3)C3CCN(S(C)(=O)=O)CC3)CC2)cc1` [Compound 4 (Table I), N-[4-({[(1-{(3R)-3-(3,5-difluorophenyl)-3-[1-(methylsulfonyl)piperidin-4-yl]propyl}piperidin-4-yl)methyl]amino}sulfonyl)phenyl]-acetamide]: the IC50 – broadly, the midpoint of a concentration-inhibition curve – is 7.94 nM.

In the case of `CS(=O)(=O)c1ccc([C@@H](CCN2CCC(CNS(=O)(=O)c3ccc(NS(=O)(=O)C(F)(F)F)cc3)CC2)c2cc(F)cc(F)c2)cc1` [Compound 16 (Table II), N-[(1-{(3R)-3-(3,5-difluorophenyl)-3-[4-(methylsulfonyl)phenyl]propyl}piperidin-4-yl)methyl]-4-{[(trifluoromethyl)sulfonyl]amino}-benzenesulfonamide], the IC50 was 50.1 nM.

Take `CS(=O)(=O)c1ccc([C@@H](CCN2CCC(CNS(=O)(=O)c3ccc(-c4nnn[nH]4)cc3)CC2)c2cc(F)cc(F)c2)cc1` [Compound 19 (Table II), N-[(1-{(3R)-3-(3,5-difluorophenyl)-3-[4-(methylsulfonyl)phenyl]propyl}piperidin-4-yl)methyl]-4-(1H-tetrazol-5-yl)-benzenesulfonamide]: the IC50 was 7.94 nM.
